ChEMBL document CHEMBL5518239, “Recent Advances on Small-Molecule Inhibitors of Lipocalin-like Proteins” (J Med Chem, 2024)
pIC50, pKd, pKi: −log10 of the molar value.

How the values were obtained:
in vitro = conditions: human, liver microsomes
[1] = molecular target: T1, Retinol-binding protein 1 (Homo sapiens, UniProt P09455)
T1 sequence (P09455 whole entry): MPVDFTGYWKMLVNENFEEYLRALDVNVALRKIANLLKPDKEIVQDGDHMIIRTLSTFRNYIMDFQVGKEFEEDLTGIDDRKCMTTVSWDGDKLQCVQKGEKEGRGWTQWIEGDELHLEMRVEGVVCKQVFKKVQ

[2] = molecular target: Retinol-binding protein 4 (Homo sapiens, UniProt P02753)
[3] = molecular target: T2, Fatty acid-binding protein, heart (Homo sapiens, UniProt P05413)
[4] = molecular target: T3, Fatty acid-binding protein, brain (Homo sapiens, UniProt O15540)
[5] = molecular target: T4, Fatty acid-binding protein, adipocyte (Homo sapiens, UniProt P15090)
[6] = molecular target: T2, Fatty acid-binding protein, heart; remark: listed apart in the source
[7] = molecular target: T1, Retinol-binding protein 1; remark: listed apart in the source
[8] = molecular target: T3, Fatty acid-binding protein, brain; remark: listed apart in the source
[9] = molecular target: T4, Fatty acid-binding protein, adipocyte; remark: listed apart in the source

## O=C(O)c1ccccc1NC(=O)N1CCC(c2ccccc2C(F)(F)F)CC1
In vitro
  remaining at 0.5 h: < 30%

## Cc1ccc(C2(c3noc(CN(C)Cc4cnn(C)c4)n3)CCCC2)cc1
[1]
  pKi: 5.15

## CC1=C(/C=C/C(C)=C/C=C/C(C)=C/C(=O)Nc2ccc(N(C)C)cc2)C(C)(C)CCC1
[2]
  pKd: 6.88

## CC1=C(/C=C/C(C)=C/C=C/C(C)=C/C(=O)N2CCOCC2)C(C)(C)CCC1
[2]
  pKd: 6.88

## CC1=C(/C=C/C(C)=C/C=C/C(C)=C/C(=O)Nc2ccc(OCC(=O)O)cc2)C(C)(C)CCC1
[2]
  pKd: 6.88

## CC1=C(/C=C/C(C)=C/C=C/C(C)=C/C(=O)NCC(O)CO)C(C)(C)CCC1 (stereo not given)
[2]
  pKd: 6.88

## O=C(O)[C@H]1[C@@H](c2ccccc2)[C@H](C(=O)Oc2cccc3ccccc23)[C@@H]1c1ccccc1
[3]
  pKi: 5.44
[4]
  pKi: 6.40

## O=C(O)Cc1cn(-c2ccccc2-c2nc(-c3ccccc3)c(-c3ccccc3)s2)nn1
[5]
  pIC50: 5.40

## O=C(O)Cc1cn(-c2ccccc2-c2nc(-c3ccc4ccccc4c3)c(-c3ccccc3)s2)nn1
[5]
  pIC50: 5.90

## O=C(O)Cc1cn(-c2ccccc2-c2nc(-c3ccc(Cl)cc3)c(-c3ccccc3)s2)nn1
[5]
  pIC50: 5.60

## O=C(O)[C@H]1[C@H](c2ccccc2)[C@H](C(=O)Oc2cccc(C3=CCOCC3)c2)[C@H]1c1ccccc1
[4]
  pKi: 6.08

## O=C(O)CCCOc1ccc(F)cc1-c1cc(-c2ccccc2C(F)(F)F)n(-c2ccccc2)n1
[6]
  pKi: 7.62

## COc1ccccc1[C@H]1[C@H](C(=O)O)[C@H](c2ccccc2OC)[C@H]1C(=O)Oc1ccccc1-c1ccccc1
[3]
  pKi: 5.80

## Cc1ccc(C2(c3noc(CN(C)Cc4cccs4)n3)CCCC2)cc1
[1]
  pKi: 5.15

## C=C(C)C1CCCC[C@H]1c1c(O)cc(O)cc1CCCCC (stereo not given in full)
[7]
  pKi: 7.17

## O=C(O)[C@H]1[C@@H](c2ccccc2)[C@H](C(=O)Nc2cccc3ccccc23)[C@@H]1c1ccccc1
[8]
  pKi: 5.82
[3]
  pKi: 5.59

## O=C(Nc1cccc2ccccc12)[C@H]1[C@H](c2ccccc2)[C@H](C(=O)Nc2cccc3ccccc23)[C@H]1c1ccccc1
[8]
  pKi: 5.48
[3]
  pKi: < 5.00

## CC(c1cccs1)N(C)Cc1nc(C(c2ccccc2)c2ccccc2)no1 (stereo not given)
[1]
  pKi: 5.15

## O=C(O)[C@H]1[C@@H](c2ccccc2)[C@H](C(=O)Oc2ccc3ccccc3c2)[C@@H]1c1ccccc1
[8]
  pKi: 5.89
[3]
  pKi: 5.46

## CC1=C(/C=C/C(C)=C/C=C/C(C)=C/C(=O)NCCO)C(C)(C)CCC1
[2]
  pKd: 6.88

## C=C1CC[C@@H]2[C@](C)(CO)[C@H](O)CC[C@@]2(C)[C@@H]1C/C=C1/C(=O)OC[C@H]1O [ANDROGRAPHOLIDE]
[9]
  pIC50: 6.05
